Values of other authors, collected in patent US9635858B2, “Pesticide and a method of controlling a wide variety of pests” (GOWAN COMERCIO INTERNACIONAL E SERVICOS LIMITADA, priority 2011, dated 2017).

Conditions: rats; cited from earlier work

C/C=C(\C)C(=O)O[C@H]1C[C@@H](OC(C)=O)[C@@]2(C(=O)OC)CO[C@H]3[C@@H](O)[C@@](C)([C@]45O[C@@]4(C)[C@H]4C[C@@H]5O[C@@H]5OC=C[C@@]54O)C4[C@]1(CO[C@]4(O)C(=O)OC)[C@@H]32 (stereo partly shown) [Azadirachtin]
LD50: > 3,540 mg/kg
